{"source": "patent US12544371B2", "about": "“Methods and compositions for treating acute lung injury and acute respiratory distress syndrome” (CalciMedica, Inc., priority 2020, dated 2026)", "key": {"[1]": {"test_system": "CRAC channel-dependent stimulated IL-2 secretion", "assay": "Ex vivo whole blood PD assay of CRAC channel-dependent IL-2 release (Test 202)", "assay_type": "in vivo, human", "experimental": "(§1) In Compound 1 Test 202, a pharmacodynamic and pharmacokinetic study of Compound 1 in patients with acute pancreatitis, patients with AP (regardless of the presence of SIRS and/or hypoxemia) were administered a single IV infusion of 2.08 mg/kg of an injectable emulsion of Compound 1 and blood, plasma and serum were collected for analysis. It was planned to initially enroll 5 patients and then to enroll an additional 4 patients as needed. Ultimately, 7 patients were screened for the study, and all 7 enrolled in and completed the study. On Days 1 and 2, blood and plasma samples for PD and PK analyses, respectively, were obtained 30 minutes after completing the administration of Compound 1 and 24 hours from the start of the administration of Compound 1. In patients hospitalized at Day 5 and 10, blood and plasma samples were obtained; if discharged earlier, samples were obtained at the time of discharge. After discharge, patients returned to the hospital on Day 30 to provide final blood and plasma samples.\nAn intravenous formulation of a CRAC inhibitor comprising Compound 1 allowed rapid delivery and onset of action when a single 2.08 mg/kg dose was given in human patients with acute pancreatitis (AP). Ex vivo whole blood pharmacodynamic (PD) assays of CRAC channel-dependent IL-2 release were performed."}, "[2]": {"assay": "Phase 1 multiple ascending dose study (Compound 1 Test 102), healthy subjects", "conditions": "for AUC(0-t) / Cmax: human, plasma, intravenous", "quoted_text": "One of the subjects received placebo at the maximum dose volume of emulsion, 1.3 mL/kg, for 7 days, whereas all others were dosed on a weight-based adjustment of dose volume."}, "[3]": {"test_system": "bacterial reverse mutation", "assay": "Ames bacterial reverse mutation assay", "assay_type": "cell-based", "conditions": "in vitro"}, "[4]": {"test_system": "IL-6 released from human PBMCs", "assay": "Cytokine released from human PBMCs: IL-6", "assay_type": "cell-based", "text": "(§2) CRAC channels may play a proximal role in a calcium-calcineurin pathway leading to cytokine release in immune cells."}, "[5]": {"test_system": "IL-10 released from human PBMCs", "assay": "Cytokine released from human PBMCs: IL-10", "assay_type": "cell-based", "conditions": "PBMC, mean of replicates", "text": "as §2"}, "[6]": {"assay": "Repeat-dose toxicity study in rats", "assay_type": "in vivo", "conditions": "rat"}, "[7]": {"test_system": "cytokine release from human lymphocytes", "assay": "In vitro studies of cytokine release from human lymphocytes", "assay_type": "cell-based"}, "[8]": {"test_system": "stimulated IL-2 release in whole blood", "assay": "Whole blood assay of stimulated IL-2 release", "assay_type": "cell-based", "conditions": "Human whole blood; SEM (n); read-out: Compound 1 IC50, whole blood assay of stimulated IL-2 release", "text": "as §2"}, "[9]": {"test_system": "IL-2 released from human PBMCs", "assay": "Cytokine released from human PBMCs: IL-2", "assay_type": "cell-based", "text": "as §2"}, "[10]": {"assay": "Phase 1 single ascending dose study (Compound 1 Test 101), healthy subjects", "assay_type": "in vivo, human", "text": "Two Phase 1 studies of N-(5-(6-Chloro-2,2-difluorobenzo[d][1,3]dioxol-5-yl)pyrazin-2-yl)-2-fluoro-6-methylbenzamide (Compound 1) have been conducted in healthy subjects: a single ascending dose (SAD) study (Compound 1 Test 101) and a multiple ascending dose (MAD) study (Compound 1 Test 102). In Compound 1 Test 101 (Table 1), 32 healthy subjects were enrolled in five groups and randomized in a 3:1 ratio to receive a single dose of active versus placebo. The dose levels for each group are noted in Table 1. The dose volume of the emulsion was fixed at 1.3 mL/kg for all subjects in the SAD study groups, and an injectable emulsion of Compound 1 or placebo was administered via a 4-hour IV infusion.\nPlasma concentrations of compound rise steadily during the 4-hour infusion, with Tmax achieved at the end of infusion (4 hours). After the end of infusion, there is a rapid and prominent distribution phase followed by a prolonged period of residual drug levels. The terminal elimination phase has not yet been fully characterized as it appears to be much longer than was anticipated based on pre-clinical PK data in mouse, rat, dog and monkey. Plasma concentrations during the terminal phase are approximately 5% of Cmax values and, as indicated above, to date there have been no clinically significant AEs reported during this phase. Plasma exposures, defined by AUC0-24 h, appear to be dose-proportional and reached a maximum of 6710 ng*h/mL in Group 5, which is 4.3-fold below the mean AUC24 h in monkey at the NOAEL (29,000 ng*hr/mL)."}, "[11]": {"assay": "Cardiovascular safety in telemetered cynomolgus monkey", "assay_type": "in vivo", "text": "Compound 1 is a non-limiting example of a composition described herein that inhibits calcium release-activated calcium (CRAC) channels)."}, "[12]": {"assay": "PD/PK study in patients with acute pancreatitis (Compound 1 Test 202)", "assay_type": "in vivo, human", "experimental": "as §1"}, "[13]": {"test_system": "IL-17 release by human PBMCs", "assay": "IL-17 release by human PBMCs, isolated cell assay", "assay_type": "cell-based", "conditions": "PBMC, SEM (n), read-out: Compound 1 IC50, IL-17 release by human PBMCs", "text": "as §2"}}, "note": "“Also recorded” adds a separate entry of the source. Where two headings read alike, the source gives them in different places."}
{"smiles": "Cc1cccc(F)c1C(=O)Nc1cnc(-c2cc3c(cc2Cl)OC(F)(F)O3)cn1", "note": "[Compound 1, N-(5-(6-Chloro-2,2-difluorobenzo[d][1,3]dioxol-5-yl)pyrazin-2-yl)-2-fluoro-6-methylbenzamide]", "values": [{"measurement": "inhibition at 2.08 mg/kg", "setting": "[1]; Homo sapiens, at or near Cmax, single 2.08 mg/kg IV", "value": "~57", "unit": "%"}, {"measurement": "time over which the inhibitory effect dissipated", "setting": "[1]; after Cmax", "value": "1 to 2", "unit": "days"}, {"measurement": "recovery of IL-2 production", "setting": "[1]; after the end of the infusion", "value": 24, "unit": "h"}, {"measurement": "decrease of IL-2 production", "setting": "[1]; at the end of the infusion", "value": "> 50", "unit": "%"}, {"measurement": "onset of action, IL-2 release inhibition", "setting": "[1]; peak at the end of a 4-hour infusion", "value": "rapid onset of action"}, {"measurement": "Cmax accumulation", "setting": "[2]; MAD Group 1, 0.5 mg/kg", "value": 1.6, "unit": "fold"}, {"measurement": "increase in systemic exposure (AUC24 h), Day 7 compared to Day 1", "setting": "[2]; MAD Group 1, 0.5 mg/kg", "value": 2.6, "unit": "fold"}, {"measurement": "margin of Day 7 AUC24 h below NOAEL AUC24 h in monkey", "setting": "[2]; MAD Group 1, 0.5 mg/kg", "value": 9.1, "unit": "fold"}, {"measurement": "Cmax accumulation", "setting": "[2]; MAD Group 2, 1.0 mg/kg", "value": 1.4, "unit": "fold"}, {"measurement": "increase in AUC24 h, Day 7 compared to Day 1", "setting": "[2]; MAD Group 2, 1.0 mg/kg", "value": 2.6, "unit": "fold"}, {"measurement": "margin of Day 7 AUC24 h below NOAEL AUC24 h in monkey", "setting": "[2]; MAD Group 2, 1.0 mg/kg", "value": 4.2, "unit": "fold"}, {"measurement": "clinically significant laboratory abnormalities", "setting": "[2]; MAD group 1", "value": "No laboratory abnormalities"}, {"measurement": "SAEs and AEs classified as moderate or severe", "setting": "[2]; MAD group 1, 0.50 mg/kg daily for 7 days", "value": "no SAEs and no AEs classified as moderate or severe in intensity"}, {"measurement": "number of clinical AEs (all mild)", "setting": "[2]; MAD group 1, eight subjects incl. placebo", "value": 15}, {"measurement": "clinically significant laboratory abnormalities", "setting": "[2]; MAD group 2", "value": "No laboratory abnormalities"}, {"measurement": "SAEs and AEs classified as moderate or severe", "setting": "[2]; MAD group 2, 1.0 mg/kg daily for 7 days", "value": "no SAEs and no AEs classified as moderate or severe in intensity"}, {"measurement": "number of AEs (all mild)", "setting": "[2]; MAD group 2, eight subjects incl. placebo", "value": "three"}, {"measurement": "cardiac function: heart rate, QTcF, B-type natriuretic peptide", "setting": "[2]; MAD, both groups", "value": "no evidence of any sustained treatment related effect"}, {"measurement": "systolic or diastolic blood pressure", "setting": "[2]; MAD, both groups", "value": "no evidence of any sustained treatment related increase"}, {"measurement": "AUC(0-t)", "setting": "[2]; 0.5 mg/kg", "value": 3190, "unit": "ng·h/mL"}, {"measurement": "Cmax", "setting": "[2]; 0.5 mg/kg", "value": 363, "unit": "ng/mL"}, {"measurement": "AUC(0-t)", "setting": "[2]; 1 mg/kg", "value": 6830, "unit": "ng·h/mL"}, {"measurement": "Cmax", "setting": "[2]; 1 mg/kg", "value": 637, "unit": "ng/mL"}, {"measurement": "Ames bacterial reverse mutation assay result", "setting": "[3]", "value": "negative"}, {"measurement": "IC50", "setting": "[4]; Homo sapiens, PBMC, mean of replicates, read-out: Mean IC50, IL-6 released from human PBMCs", "value": 135, "unit": "nM"}, {"measurement": "IC50", "setting": "[4]; Homo sapiens, PBMC, single replicates, read-out: Replicate IC50 values, IL-6 released from human PBMCs", "value": 145, "unit": "nM"}, {"measurement": "IC50", "setting": "[4]; single replicates, read-out: Replicate IC50 values, IL-6 released from human PBMCs", "value": 126, "unit": "nM"}, {"measurement": "IC50", "setting": "[5]", "value": 303, "unit": "nM"}, {"measurement": "NOAEL", "setting": "[6]; in vivo, repeat-dose, rats, read-out: no observable adverse effect level (NOAEL)", "value": 25, "unit": "mg/kg/day"}, {"measurement": "local irritation at the injection site", "setting": "[6]; repeat-dose toxicity study", "value": "no evidence of compound-related or vehicle-related local irritation"}, {"measurement": "inhibition of cytokine release from human lymphocytes", "setting": "[7]", "value": "inhibits release of multiple cytokines; also recorded: potent, concentration-dependent inhibition"}, {"measurement": "IC50", "setting": "[8]", "value": "178 ± 32", "unit": "nM"}, {"measurement": "IC50", "setting": "[9]; Homo sapiens, PBMC, mean of replicates, read-out: Mean IC50, IL-2 released from human PBMCs", "value": 59, "unit": "nM"}, {"measurement": "IC50", "setting": "[9]; Homo sapiens, PBMC, single replicates, read-out: Replicate IC50 values, IL-2 released from human PBMCs", "value": 71, "unit": "nM"}, {"measurement": "IC50", "setting": "[9]; single replicates, read-out: Replicate IC50 values, IL-2 released from human PBMCs", "value": 47, "unit": "nM"}, {"measurement": "margin of AUC0-24 h below mean AUC24 h in monkey at the NOAEL", "setting": "[10]; SAD Group 5", "value": 4.3, "unit": "fold"}, {"measurement": "Tmax", "setting": "[10]; human, in vivo", "value": 4, "unit": "h"}, {"measurement": "cardiac function: heart rate, QTcF, cardiac troponin-T, B-type natriuretic peptide", "setting": "[10]; human, in vivo", "value": "no evidence of any treatment related effect"}, {"measurement": "clinically significant laboratory abnormalities", "setting": "[10]; human, in vivo", "value": "No laboratory abnormalities"}, {"measurement": "distribution compartments, non-compartmental PK analysis", "setting": "[10]; human, in vivo", "value": "three compartments"}, {"measurement": "dose proportionality of plasma exposure (AUC0-24 h)", "setting": "[10]; human, in vivo", "value": "dose-proportional"}, {"measurement": "number of clinical AEs (all mild)", "setting": "[10]; human, in vivo", "value": "three"}, {"measurement": "plasma concentrations during the terminal phase relative to Cmax", "setting": "[10]; human, in vivo", "value": "approximately 5 % of Cmax"}, {"measurement": "systolic or diastolic blood pressure", "setting": "[10]; human, in vivo", "value": "no evidence of any sustained treatment related increase"}, {"measurement": "AUC(0-t)", "setting": "[10]; human, in vivo, 2.1 mg/kg", "value": 6710, "unit": "ng·h/mL"}, {"measurement": "cardiovascular data at lower doses", "setting": "[11]; 1, 3 and 10 mg/kg, also seen in placebo treated animals", "value": "transient, non-dose-related, slight-to-moderate increases in systolic/diastolic arterial blood pressures and negative chronotropic effects (mild and non-adverse)"}, {"measurement": "clinical and cardiovascular effects", "setting": "[11]; single telemetered cynomolgus monkey, 25 mg/kg IV", "value": "Dose-limiting adverse clinical and cardiovascular effects"}, {"measurement": "patients with moderate TEAEs", "setting": "[12]; 1 of 7 patients", "value": 14, "unit": "%"}, {"measurement": "patients with severe TEAEs", "setting": "[12]; 2 of 7 patients, also SAEs, not considered drug related", "value": 29, "unit": "%"}, {"measurement": "number of TEAEs", "setting": "[12]; 7 patients, single 2.08 mg/kg", "value": 7, "unit": "TEAEs"}, {"measurement": "patients who experienced TEAEs", "setting": "[12]; 7 patients, single IV infusion of 2.08 mg/kg", "value": 3, "unit": "patients"}, {"measurement": "Discharge IL-6 levels, patients with IL-6 ≥ 1000 pg/mL", "setting": "[12]; PK/PD Single Dose, admission 0", "value": 0}, {"measurement": "Discharge IL-6 levels, patients with 150 pg/mL ≤ IL-6 < 1000 pg/mL", "setting": "[12]; PK/PD Single Dose, admission 1", "value": 0}, {"measurement": "TEAEs with causality Unlikely", "setting": "[12]; of the 7 TEAEs", "value": 2, "unit": "TEAEs"}, {"measurement": "TEAEs with causality Unrelated", "setting": "[12]; of the 7 TEAEs", "value": 5, "unit": "TEAEs"}, {"measurement": "mild TEAEs", "setting": "[12]; of the 7 TEAEs", "value": 3, "unit": "TEAEs"}, {"measurement": "moderate TEAEs", "setting": "[12]; of the 7 TEAEs", "value": 2, "unit": "TEAEs"}, {"measurement": "severe TEAEs (also SAEs)", "setting": "[12]; of the 7 TEAEs", "value": 2, "unit": "TEAEs"}, {"measurement": "IC50", "setting": "[13]", "value": "122 ± 36", "unit": "nM"}]}
